# Source: US20230119759A1, “PHARMACEUTICAL COMBINATION COMPRISING PYRIDINO[1,2-A]PYRIMIDINONE COMPOUND” (CHIA TAI TIANQING PHARMACEUTICAL GROUP CO., LTD., priority 2020, published 2023)
# Tested on: BT-474 xenograft tumor
# Test: Human breast cancer (BT-474) xenograft tumor model in nude mice
# Type: in vivo, BALB/c female nude mice
# Conditions: for Mean tumor volume (day 28) / T/C / TGI: day 28; for Mean tumor volume (day 0): day 0 (start of treatment, baseline)
# Protocol: BALB/c female nude mice (provided by Shanghai Sippr-BK Lab. Animal Co., Ltd.), SPF-grade, weight 18-25 g, aged about 8 weeks (tumor-bearing). Human breast cancer BT-474 cells (ATCC) were cultured in Hybri-Care medium containing 10% fetal bovine serum, 100 U/mL penicillin and […] in vitro monolayer culture at 37° C./5% CO2. The cells were digested with trypsin-EDTA twice a week for passaging as per conventional practice. When cell confluence was 80%-90%, the cells were collected, counted, and inoculated. Estrogen tablets were implanted 3 days before cell inoculation, 0.2 mL of BT-474 cells (1×10^7) were subcutaneously inoculated on the right back of each mouse, and grouping and administration was initiated when the mean tumor volume reached 127.19 mm^3. The compound of formula I was dissolved in a vehicle: 0.01 mol/L HCl solution, 0.5% methylcellulose and deionized water were mixed well in a volume ratio of 20:30:100.
# The tumor volume was calculated using the following formula: V=0.5a×b^2, where a and b represent the long diameter and short diameter of the tumor, respectively. The percentage value of TIC (%) reflects the tumor growth inhibition rate, and where T and C represent the tumor weight (tumor volume) of the treatment groups and the control group, respectively, on a certain day.
# The tumor growth inhibition rate was calculated using the following formula: TGI (%)=[1−(Ti−T0)/(Vi−V0)]×100, where Ti is the mean tumor volume of a certain treatment group on a certain day, T0 is the mean tumor volume of the treatment group at the start of treatment, Vi is the mean tumor volume of the vehicle control group on a certain day (same day as Ti) and V0 is the mean tumor volume of the vehicle control group at the start of treatment. Tumor weights were measured at the end of treatment and percentage Tweight/Cweight was calculated, where Tweight and Cweight represent the tumor weights of the treatment and vehicle control groups, respectively.
# [1] = 1 mg/kg orally once daily for 28 days
# [2] = 2 mg/kg orally once daily for 28 days
# [3] = 4 mg/kg orally once daily for 28 days
compound,measurement,setting,value
COc1ncc(-c2ccc3ncc(OCCN(C)C)c(=O)n3c2)cc1NS(=O)(=O)c1ccc(F)cc1Cl [Compound of formula I],Mean tumor volume (day 28),[1],223 ± 50 mm^3
same,T/C,[1],56.09%
same,TGI,[1],64.56%
same,Mean tumor volume (day 0),1 mg/kg orally once daily,127 ± 11 mm^3
same,Mean tumor volume (day 28),[2],159 ± 36 mm^3
same,T/C,[2],40.11%
same,TGI,[2],88.10%
same,Mean tumor volume (day 0),2 mg/kg orally once daily,127 ± 11 mm^3
same,Mean tumor volume (day 28),[3],145 ± 40 mm^3
same,T/C,[3],36.52%
same,TGI,[3],93.35%
same,Mean tumor volume (day 0),4 mg/kg orally once daily,127 ± 11 mm^3
same,anti-tumor efficacy (in words),"BT-474 xenograft tumor model, 1-4 mg/kg orally",significant anti-tumor efficacy
